Assays:
[1] = target: Tyk2 (Homo sapiens (Human), UniProt P29597); assay: Biochemical JAK and Tyk2 kinase assays (LanthaScreen): Tyk2; settings: 1 h pre-incubation, ATP at Km; pIC50 converted to pKi by Cheng-Prusoff
Protocol: (§1) Assay 1: Biochemical JAK and Tyk2 Kinase Assays
(§2) A panel of four LanthaScreen JAK biochemical assays (JAK1, 2, 3 and Tyk2) were carried in a common kinase reaction buffer (50 mM HEPES, pH 7.5, 0.01% Brij-35, 10 mM MgCl2, and 1 mM EGTA). Recombinant GST-tagged JAK enzymes and a GFP-tagged STAT1 peptide substrate were obtained from Life Technologies.
(§3) Serially or discretely diluted compounds were pre-incubated with each of the four JAK enzymes and the substrate in white 384-well microplates (Corning) at ambient temperature for 1 h. ATP was subsequently added to initiate the kinase reactions in 10 μL total volume, with 1% DMSO. […] Kinase reactions were allowed to proceed for 1 hour at ambient temperature before a 10 μL preparation of EDTA (10 mM final concentration) and Tb-anti-pSTAT1 (pTyr701) antibody (Life Technologies, 2 nM final concentration) in TR-FRET dilution buffer (Life Technologies) was added. The plates were allowed to incubate at ambient temperature for 1 h before being read on the EnVision reader (Perkin Elmer). Emission ratio signals (520 nm/495 nm) were recorded and utilized to calculate the percent inhibition values based on DMSO and background controls.
(§4) For dose-response analysis, percent inhibition data were plotted vs. compound concentrations, and IC50 values were determined from a 4-parameter robust fit model with the Prism software (GraphPad Software). Results were expressed as pIC50 (negative logarithm of IC50) and subsequently converted to pKi (negative logarithm of dissociation constant, Ki) using the Cheng-Prusoff equation.

[2] = test system: IL-2 stimulated pSTAT5 in CD4+ T cells isolated from murine splenocytes (JAK3); assay: Inhibition of IL-2 stimulated pSTAT5 in CD4+ T cells isolated from murine splenocytes; assay type: cell-based; settings: Mus musculus, IL-2 7 ng/ml, read-out: pIC50, inhibition of IL-2 stimulated pSTAT5 (converted)
Protocol: Assay 3: Inhibition of IL-2 Stimulated pSTAT5 in CD4+ T Cells Isolated from Murine Splenocytes
The potency of test compounds for inhibition of interleukin-2 (IL-2) stimulated STATS phosphorylation was measured in the CD4+ T cells isolated from murine splenocytes using AlphaLisa. Because IL-2 signals through JAK3, this assay provides a measure of JAK3 cellular potency in mouse.
Phosphorylated STATS was measured via the AlphaLISA SureFire Ultra pSTAT5 (Tyr694/699) kit (PerkinElmer).
CD4+ T cells were isolated from murine splenocytes via negative selection on a magnetic column (Miltnyi Biotec) and re-suspended in assay media (phenol red-free DMEM (Life Technologies) supplemented with 10% FBS (ATCC)). Cells were seeded at 50,000 cells/well in assay media (2 μL/well). Compounds were serially diluted in DMSO and diluted to 2× final concentration in assay media. Compound was added (4 μl/well) and the cells incubated at 37° C., 5% CO2 for 1 hour, followed by the addition of IL-2 (R&D Systems; final concentration 7 ng/ml) in pre-warmed assay media (2 μL) for 30 minutes. After cytokine stimulation, cells were lysed with 2 μl of 5× AlphaLisa Lysis Buffer (PerkinElmer). The lysate was shaken at 900 rpm for 10 minutes at room temperature (RT). Phosphorylated STATS was measured via the pSTAT5 AlphaLisa kit (PerkinElmer). Freshly prepared acceptor bead mixture was dispensed onto lysate (5 ul) under green filtered <100 lux light. Plates were shaken at 900 rpm for 2 mins, briefly spun down, and incubated for 2 hrs at RT in the dark. Donor beads were dispensed (5 μl) under green filtered <100 lux light. Plates were shaken at 900 rpm for 2 mins, briefly spun down, and incubated overnight at RT in the dark. Luminescence was measured with excitation at 689 nm and emission at 570 nm using an EnVision plate reader (PerkinElmer) under green filtered <100 lux light.
To determine the inhibitory potency of test compounds in response to IL-2, the average emission intensity of beads bound to pSTATS was measured in primary CD4+ T cells isolated from murine splenocytes. IC50 values were determined from analysis of the inhibition curves of signal intensity vs compound concentration. Data are expressed as pIC50 (negative decadic logarithm IC50) values (mean±standard deviation).

[3] = target: JAK3 (Homo sapiens (Human), UniProt P52333); assay: Biochemical JAK and Tyk2 kinase assays (LanthaScreen): JAK3; settings: for JAK 3 (pKi) / Ki: 1 h pre-incubation, ATP at Km, pIC50 converted to pKi by Cheng-Prusoff; for JAK3 (pKi)-JAK1 (pKi): difference of pKi values, selectivity JAK3 over JAK1; for Ki: read-out: JAK 3 (pKi) (converted)
How it was run: (§5)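 Recombinant GST-tagged JAK enzymes with GFP-tagged STAT1 peptide substrate in 50 mM HEPES pH 7.5, 10 mM MgCl2, 1 mM EGTA, 0.01% Brij-35. Compounds pre-incubated 1 h at ambient temperature before ATP start; 1 h reaction, then EDTA plus Tb-anti-pSTAT1 (pTyr701) TR-FRET read. IC50 from 4-parameter fit, converted to pKi by Cheng-Prusoff.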

[4] = test system: IL-2 stimulated pSTAT5 in Tall-1 T cells (JAK3); assay: Cellular JAK3 potency assay: inhibition of IL-2 stimulated pSTAT5 in Tall-1 T cells; assay type: cell-based; settings: IL-2 300 ng/ml, pSTAT5 AlphaLisa, Tall-1 human T cell line; read-out: Tall-1 (pIC50) (converted)
How it was run: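 Human Tall-1 T cells (45,000/well) preincubated with compound 1 h at 37 °C, then stimulated with IL-2 (final 300 ng/ml) for 30 min. Lysates read for pSTAT5 (Tyr694/699) by AlphaLISA luminescence. IC50 from signal-versus-concentration curves, reported as pIC50 (mean±SD).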

[5] = target: JAK2 (Homo sapiens (Human), UniProt O60674); assay: Biochemical JAK and Tyk2 kinase assays (LanthaScreen): JAK2; settings: 1 h pre-incubation, ATP at Km, pIC50 converted to pKi by Cheng-Prusoff; for Ki: read-out: JAK 2 (pKi) (converted)
Protocol: as §1, §2, §3, §4

[6] = Colon and plasma mouse pharmacokinetics; assay type: in vivo; settings: ratio of colon AUC to plasma AUC, male Balb/c mice, 10 mg/kg PO; for Kp: mouse
Protocol: Assay 6: Colon and Plasma Mouse Pharmacokinetics
6 male Balb/c mice were administered 10 mg/kg of compound in 1% HPMC+0.1% Tween-80 by PO administration. At 0.5, 2 and 6 hours after dose administration, animals were anesthetized, and terminal blood samples were collected by cardiac puncture, followed by collection of colon contents and colon tissue.
Blood samples were collected into K2EDTA and stored on wet ice until processed to plasma by centrifugation (12,000 rpm at 4° C.). Plasma samples were transferred to cluster tubes and placed on dry ice prior to freezer storage. The colon contents from each animal were collected at each terminal blood collection time point. The colon tissues were flushed with saline and patted dry. The colon and colon content tissues were homogenized using sterile water containing 0.1% formic acid 9:1 (water:tissue, v/w). The homogenized tissues and colon contents were transferred to cluster tubes and placed on dry ice prior to freezer storage. All samples were analyzed using LC/MS/MS against analytical standards.
The composite pharmacokinetic parameters of the compounds were determined by non-compartmental analysis using Phoenix WinNonlin Version 6 (Certara, St. Louis, Mo.) and using mean values from 2 animals/time point. For plasma concentrations below the quantification limit (BQL), the lowest concentration measurable or the BLOQ (below limit of quantification) was used.
A colon to plasma ratio was determined as the ratio of the colon AUC to the plasma AUC.

[7] = target: JAK1 (Homo sapiens (Human), UniProt P23458); assay: Biochemical JAK and Tyk2 kinase assays (LanthaScreen): JAK1; settings: 1 h pre-incubation, ATP at Km; pIC50 converted to pKi by Cheng-Prusoff
How it was run: as §5

[8] = test system: Caco-2 cell monolayers; assay: Caco-2 permeation assay; assay type: in vitro ADME, human; settings: for Caco Kp 10^−6 cm/sec: 5 μM, A to B, + Verapamil 25 μM, 120 minutes
Description: Assay 5: Caco-2 Permeation Assay

Sequence of JAK1 (P23458 whole entry): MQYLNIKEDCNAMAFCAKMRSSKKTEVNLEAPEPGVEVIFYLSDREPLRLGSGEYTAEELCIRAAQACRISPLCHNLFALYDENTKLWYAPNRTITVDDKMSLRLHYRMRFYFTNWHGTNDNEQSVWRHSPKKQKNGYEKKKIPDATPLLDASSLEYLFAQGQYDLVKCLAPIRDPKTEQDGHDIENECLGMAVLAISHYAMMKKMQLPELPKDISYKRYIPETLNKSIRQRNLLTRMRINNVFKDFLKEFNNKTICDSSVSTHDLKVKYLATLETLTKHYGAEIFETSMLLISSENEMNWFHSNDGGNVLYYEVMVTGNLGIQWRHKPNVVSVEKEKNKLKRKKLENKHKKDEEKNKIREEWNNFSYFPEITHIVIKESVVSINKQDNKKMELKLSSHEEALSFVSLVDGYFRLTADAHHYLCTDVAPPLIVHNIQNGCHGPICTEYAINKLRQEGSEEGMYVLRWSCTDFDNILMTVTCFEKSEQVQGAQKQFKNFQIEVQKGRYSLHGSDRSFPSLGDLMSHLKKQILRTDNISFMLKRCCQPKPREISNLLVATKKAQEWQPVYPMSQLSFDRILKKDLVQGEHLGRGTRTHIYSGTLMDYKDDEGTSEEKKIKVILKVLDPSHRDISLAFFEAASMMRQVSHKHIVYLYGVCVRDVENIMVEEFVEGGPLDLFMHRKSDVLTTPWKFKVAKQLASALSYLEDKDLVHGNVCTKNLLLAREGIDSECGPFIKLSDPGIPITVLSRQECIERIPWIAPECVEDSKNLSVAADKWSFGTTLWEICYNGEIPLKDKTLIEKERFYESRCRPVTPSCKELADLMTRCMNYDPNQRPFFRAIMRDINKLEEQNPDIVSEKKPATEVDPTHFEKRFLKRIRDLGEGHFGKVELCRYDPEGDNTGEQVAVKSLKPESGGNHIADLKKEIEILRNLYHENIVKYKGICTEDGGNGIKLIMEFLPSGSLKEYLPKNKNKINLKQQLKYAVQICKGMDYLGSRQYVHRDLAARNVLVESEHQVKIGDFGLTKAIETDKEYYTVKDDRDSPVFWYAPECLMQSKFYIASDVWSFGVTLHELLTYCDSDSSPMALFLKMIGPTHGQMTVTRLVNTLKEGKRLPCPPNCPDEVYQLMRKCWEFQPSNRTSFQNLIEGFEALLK
Sequence of Tyk2 (P29597 whole entry): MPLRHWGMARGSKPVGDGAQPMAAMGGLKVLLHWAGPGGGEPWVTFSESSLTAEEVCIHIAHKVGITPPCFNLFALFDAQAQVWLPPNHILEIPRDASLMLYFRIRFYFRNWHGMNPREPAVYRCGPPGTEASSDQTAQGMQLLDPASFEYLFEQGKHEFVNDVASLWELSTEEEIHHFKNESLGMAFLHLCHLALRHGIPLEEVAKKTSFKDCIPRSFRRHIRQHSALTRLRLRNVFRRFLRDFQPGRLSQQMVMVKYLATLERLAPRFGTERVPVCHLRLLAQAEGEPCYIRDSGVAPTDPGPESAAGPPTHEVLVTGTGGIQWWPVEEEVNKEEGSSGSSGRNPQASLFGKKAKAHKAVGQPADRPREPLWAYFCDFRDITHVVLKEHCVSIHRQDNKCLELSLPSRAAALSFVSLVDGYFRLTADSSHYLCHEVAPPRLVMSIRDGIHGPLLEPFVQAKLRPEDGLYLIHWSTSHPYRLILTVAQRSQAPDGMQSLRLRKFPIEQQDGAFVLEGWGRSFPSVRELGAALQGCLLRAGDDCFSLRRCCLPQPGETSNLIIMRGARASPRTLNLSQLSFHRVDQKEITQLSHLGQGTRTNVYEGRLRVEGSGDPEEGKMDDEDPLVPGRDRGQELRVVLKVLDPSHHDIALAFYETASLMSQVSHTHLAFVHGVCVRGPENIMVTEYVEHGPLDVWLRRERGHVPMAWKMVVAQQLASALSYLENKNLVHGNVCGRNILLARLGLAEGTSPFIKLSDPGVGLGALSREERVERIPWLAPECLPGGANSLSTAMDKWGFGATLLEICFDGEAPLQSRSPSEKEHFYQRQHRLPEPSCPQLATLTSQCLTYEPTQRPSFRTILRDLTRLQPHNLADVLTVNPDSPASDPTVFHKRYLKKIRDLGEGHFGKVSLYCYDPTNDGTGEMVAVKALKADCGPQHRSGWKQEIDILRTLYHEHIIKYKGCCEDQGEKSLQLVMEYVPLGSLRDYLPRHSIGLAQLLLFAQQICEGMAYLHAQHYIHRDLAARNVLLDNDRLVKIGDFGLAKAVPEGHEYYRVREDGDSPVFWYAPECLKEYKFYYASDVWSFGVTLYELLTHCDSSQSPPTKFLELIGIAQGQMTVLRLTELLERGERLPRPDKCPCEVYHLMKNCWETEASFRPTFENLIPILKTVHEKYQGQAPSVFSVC
Sequence of JAK2 (O60674 whole entry): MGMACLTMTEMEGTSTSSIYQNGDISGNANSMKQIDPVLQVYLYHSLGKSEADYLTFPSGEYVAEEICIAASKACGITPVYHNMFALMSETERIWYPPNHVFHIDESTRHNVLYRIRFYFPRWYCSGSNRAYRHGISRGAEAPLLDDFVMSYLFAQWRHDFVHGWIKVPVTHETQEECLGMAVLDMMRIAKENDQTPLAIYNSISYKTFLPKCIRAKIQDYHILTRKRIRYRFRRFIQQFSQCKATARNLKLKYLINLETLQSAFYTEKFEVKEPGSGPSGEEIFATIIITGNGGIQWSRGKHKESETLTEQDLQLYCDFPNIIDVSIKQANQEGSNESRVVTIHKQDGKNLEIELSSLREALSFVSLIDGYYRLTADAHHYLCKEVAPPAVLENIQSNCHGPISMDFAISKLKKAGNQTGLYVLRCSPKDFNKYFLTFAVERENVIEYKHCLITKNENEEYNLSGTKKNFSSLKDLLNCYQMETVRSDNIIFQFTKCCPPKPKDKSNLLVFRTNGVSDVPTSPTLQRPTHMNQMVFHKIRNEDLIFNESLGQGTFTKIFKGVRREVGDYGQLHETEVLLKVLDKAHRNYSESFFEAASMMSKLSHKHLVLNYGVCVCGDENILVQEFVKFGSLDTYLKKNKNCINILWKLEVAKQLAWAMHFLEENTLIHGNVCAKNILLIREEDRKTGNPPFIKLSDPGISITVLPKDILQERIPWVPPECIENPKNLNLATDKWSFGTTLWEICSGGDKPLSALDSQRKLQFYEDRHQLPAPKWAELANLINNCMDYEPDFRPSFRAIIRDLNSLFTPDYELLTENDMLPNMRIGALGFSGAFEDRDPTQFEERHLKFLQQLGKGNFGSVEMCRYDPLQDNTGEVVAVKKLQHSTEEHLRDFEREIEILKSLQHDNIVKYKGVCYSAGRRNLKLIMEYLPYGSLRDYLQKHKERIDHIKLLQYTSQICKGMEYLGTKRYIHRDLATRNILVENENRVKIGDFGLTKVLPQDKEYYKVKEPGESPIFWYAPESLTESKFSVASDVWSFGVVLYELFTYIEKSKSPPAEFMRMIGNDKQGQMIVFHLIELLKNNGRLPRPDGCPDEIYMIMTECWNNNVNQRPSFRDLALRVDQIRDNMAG
Sequence of JAK3 (P52333 whole entry): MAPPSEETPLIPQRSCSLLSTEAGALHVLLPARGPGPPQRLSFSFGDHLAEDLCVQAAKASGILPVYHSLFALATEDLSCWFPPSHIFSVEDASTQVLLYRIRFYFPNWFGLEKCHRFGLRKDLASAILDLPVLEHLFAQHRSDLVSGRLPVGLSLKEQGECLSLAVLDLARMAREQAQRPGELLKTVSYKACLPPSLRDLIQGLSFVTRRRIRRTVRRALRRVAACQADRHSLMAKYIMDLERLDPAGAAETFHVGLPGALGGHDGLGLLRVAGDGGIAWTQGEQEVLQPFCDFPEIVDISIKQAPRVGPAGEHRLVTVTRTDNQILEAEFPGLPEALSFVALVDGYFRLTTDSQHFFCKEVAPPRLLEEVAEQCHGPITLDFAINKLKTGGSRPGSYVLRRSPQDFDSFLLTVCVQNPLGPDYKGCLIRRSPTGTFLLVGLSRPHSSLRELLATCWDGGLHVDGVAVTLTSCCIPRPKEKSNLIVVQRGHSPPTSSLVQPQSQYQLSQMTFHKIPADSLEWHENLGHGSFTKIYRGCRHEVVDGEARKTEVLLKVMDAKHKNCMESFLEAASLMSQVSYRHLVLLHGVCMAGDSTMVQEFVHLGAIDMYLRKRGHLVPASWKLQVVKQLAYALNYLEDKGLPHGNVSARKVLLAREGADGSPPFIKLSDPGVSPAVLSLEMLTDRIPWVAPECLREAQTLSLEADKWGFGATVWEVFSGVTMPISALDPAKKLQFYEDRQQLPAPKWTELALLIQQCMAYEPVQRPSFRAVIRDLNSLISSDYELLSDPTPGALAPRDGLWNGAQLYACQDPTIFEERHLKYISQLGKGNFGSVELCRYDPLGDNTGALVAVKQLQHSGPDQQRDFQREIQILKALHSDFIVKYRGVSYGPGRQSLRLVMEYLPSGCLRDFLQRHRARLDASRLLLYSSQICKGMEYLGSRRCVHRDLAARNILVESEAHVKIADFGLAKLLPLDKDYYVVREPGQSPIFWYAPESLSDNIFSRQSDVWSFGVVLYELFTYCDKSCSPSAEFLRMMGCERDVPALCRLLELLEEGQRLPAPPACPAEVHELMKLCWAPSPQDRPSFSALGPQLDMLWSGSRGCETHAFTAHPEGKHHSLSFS

Compound	Tyk 2 (pKi) [1]	IC50 [2] [nM]	JAK 3 (pKi) [3]	JAK3 (pKi)-JAK1 (pKi) [3]	IC50 [4] [nM]	JAK 2 (pKi) [5]	Kp [6]	JAK 1 (pKi) [7]	Caco Kp 10^−6 cm/sec [8]	Ki [3] [nM]	Ki [5] [nM]	Ki [7] [nM]	colon to plasma ratio [6]	Kp value ([8]; A to B + Verapamil, unit not given, thresholds in same block in 10^−6 cm/sec)
CCc1cc(O)c(F)cc1-c1cc(OCC2CN(C(=O)/C=C/CN(C)C)C2)c2cncn2c1 [Example 24]	E (E represents a pKi value of 7 or below (Ki of 100 nM or above))	< 1000	A (A represents a pKi value≥10 (Ki≤0.1 nM))	A (A represents a value of 3 or above)	31.6 to 200	E (E represents a pKi value of 7 or below (Ki of 100 nM or above))	> 200	E (E represents a pKi value of 7 or below (Ki of 100 nM or above))	A (A represents a value below 5×10^−6 cm/sec)					
C=CC(=O)N1CCC[C@H](Oc2cc(-c3cc(F)c(O)cc3CC)cn3cncc23)C1 [Example 16]	E (E represents a pKi value of 7 or below (Ki of 100 nM or above))			B (B represents a value of 2.3 to 3)	31.6 to 200		> 200		C (C represents a value between 10×10^−6 and 25×10^−6 cm/sec)	0.1 to 1	10 to 100	10 to 100		
C=CC(=O)N1C[C@H](Nc2ncnc3[nH]ccc23)CC[C@@H]1C [PF-06651600, 2-propen-1-one, 1-[(2S,5R)-2-methyl-5-(7H-pyrrolo[2,3-d]pyrimidin-4-ylamino)-1-piperidinyl], reference compound]													2.8	25
C=CC(=O)N1CC(COc2cc(-c3ccc(O)c(F)c3)cn3cncc23)C1 [Example 20]	E (E represents a pKi value of 7 or below (Ki of 100 nM or above))	< 1000		A (A represents a value of 3 or above)	31.6 to 200	E (E represents a pKi value of 7 or below (Ki of 100 nM or above))		E (E represents a pKi value of 7 or below (Ki of 100 nM or above))	A (A represents a value below 5×10^−6 cm/sec)	0.1 to 1				
C=CC(=O)N1CC(COc2cc(-c3c(F)cc(O)cc3F)cn3cncc23)C1 [Example 7, 1-(3-(((6-(2,6-difluoro-4-hydroxyphenyl)imidazo[1,5-a]pyridin-8-yl)oxy)methyl)azetidin-1-yl)prop-2-en-1-one]	E (E represents a pKi value of 7 or below (Ki of 100 nM or above))	< 1000		A (A represents a value of 3 or above)	31.6 to 200	E (E represents a pKi value of 7 or below (Ki of 100 nM or above))		E (E represents a pKi value of 7 or below (Ki of 100 nM or above))	B (B represents a value between 5×10^−6 and 10×10^−6 cm/sec)	0.1 to 1				
C=CC(=O)N1CC(COc2cc(-c3ccc(O)c(C)c3)cn3cncc23)C1 [Example 34]	E (E represents a pKi value of 7 or below (Ki of 100 nM or above))	< 1000		A (A represents a value of 3 or above)	31.6 to 200	E (E represents a pKi value of 7 or below (Ki of 100 nM or above))		E (E represents a pKi value of 7 or below (Ki of 100 nM or above))	B (B represents a value between 5×10^−6 and 10×10^−6 cm/sec)	0.1 to 1				
C=CC(=O)N1CC[C@@H](Oc2cc(-c3ccc(O)cc3)cn3cncc23)C[C@H]1C [Example 15, 1-((2R,4R)-4-((6-(4-hydroxyphenyl)imidazo[1,5-a]pyridin-8-yl)oxy)-2-methylpiperidin-1-yl)prop-2-en-1-one]	E (E represents a pKi value of 7 or below (Ki of 100 nM or above))	< 1000	A (A represents a pKi value≥10 (Ki≤0.1 nM))	A (A represents a value of 3 or above)	≤ 31.6		> 30	E (E represents a pKi value of 7 or below (Ki of 100 nM or above))			10 to 100			
C=CC(=O)N1CCC(Oc2cc(-c3ccc(O)cc3)cn3cncc23)CC1 [Example 30]	E (E represents a pKi value of 7 or below (Ki of 100 nM or above))		A (A represents a pKi value≥10 (Ki≤0.1 nM))	A (A represents a value of 3 or above)	31.6 to 200	E (E represents a pKi value of 7 or below (Ki of 100 nM or above))	> 8	E (E represents a pKi value of 7 or below (Ki of 100 nM or above))	C (C represents a value between 10×10^−6 and 25×10^−6 cm/sec)					
